For twelve molecules, TGI and GI50 results are on record in PubChem BioAssay (NCI).

Structures are written as SMILES. Several values for one entry are separate records, joined by “and”; a condition that tells them apart may be missing. Equal entries are not always repeated.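 Cells were grown in 96-well plates and exposed to each compound for 48 hours at five concentrations; endpoints were interpolated linearly between bracketing concentrations, or set to the highest concentration if not reached. GI50 is the concentration that inhibits growth by half. Definition used: TGI = concentration required for complete inhibition of growth.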

Some test systems named below: U251 CNS; OVCAR-8 ovarian; SK-MEL-5 melanoma; TK-10 renal; NCI-H226 lung; K-562 leukemia; MOLT-4 leukemia; ACHN renal; OVCAR-5 ovarian; IGROV1 ovarian.
Holding throughout (assay): NCI anticancer screen, dose series, 48 h

`CCOC(=O)C1Oc2ccc([N+](=O)[O-])c3c2C1(O)CCC3` (stereo not drawn): the TGI with U251 CNS, in the assay on OVCAR-8 ovarian, with SK-MEL-5 melanoma, in the assay with TK-10 renal, in the assay with NCI-H226 lung and in the assay on K-562 leukemia was more than 100 µM each time. The TGI in the assay with MOLT-4 leukemia, in the assay with ACHN renal, in the assay on OVCAR-5 ovarian and in the assay with IGROV1 ovarian was more than 100 µM throughout.
For `O=S(=O)(NCCNC/C=C/c1ccc(Br)cc1)c1cccc2cnccc12`, the GI50 in the assay on U251 CNS is 9.55 µM and 13.8 µM; in the assay with OVCAR-8 ovarian, 13 µM and 15.6 µM; in the assay with SK-MEL-5 melanoma it was 6.07 µM and 13.3 µM; in the assay on TK-10 renal, 5.92 µM and 10.3 µM; in the assay with NCI-H226 lung it was 12.3 µM and 13.7 µM; in the assay on K-562 leukemia, 6.63 µM. The GI50 was > 20.4 µM and 7.23 µM with MOLT-4 leukemia; 10.3 µM and 12.5 µM with ACHN renal; 13.4 µM and 12.9 µM in the assay on OVCAR-5 ovarian; 6.4 µM and 10.4 µM in the assay on IGROV1 ovarian. Moreover, the TGI was 23.9 µM and 26.7 µM in the assay on U251 CNS; 28.5 µM and 32.3 µM in the assay on OVCAR-8 ovarian; 19.3 µM and 26.5 µM with SK-MEL-5 melanoma; 19.6 µM and 23 µM in the assay with TK-10 renal; 30.7 µM and 34.5 µM with NCI-H226 lung; > 36.7 µM and 27.3 µM in the assay on K-562 leukemia. Moreover, the TGI with MOLT-4 leukemia is > 45 µM and 27.7 µM; in the assay on ACHN renal, 22.8 µM and 26.2 µM; in the assay on OVCAR-5 ovarian, 27.5 µM and 28 µM; with IGROV1 ovarian, 23.2 µM and 26.4 µM.
Consider `C[C@]12CCC3[C@@H](CC[C@@H]4c5nonc5CC[C@]34C)C1CCC(=O)N2` (stereo partly drawn), for which the TGI in the assay with U251 CNS, in the assay on OVCAR-8 ovarian, in the assay with SK-MEL-5 melanoma, in the assay on TK-10 renal, in the assay with NCI-H226 lung and with K-562 leukemia was more than 100 µM in each case. The TGI in the assay on MOLT-4 leukemia, with ACHN renal, with OVCAR-5 ovarian and with IGROV1 ovarian was more than 100 µM each time. Moreover, the GI50 in the assay with MOLT-4 leukemia was more than 59.7 µM.
Take `C=CCOC1OC(CO[Si](C)(C)C(C)(C)C)C(OCc2ccccc2)C(OCc2ccccc2)C1OCc1ccccc1` (stereo not drawn): the TGI in the assay with U251 CNS, in the assay with OVCAR-8 ovarian, in the assay with SK-MEL-5 melanoma, in the assay on TK-10 renal, in the assay with NCI-H226 lung and in the assay with K-562 leukemia was more than 100 µM in each case. For the same molecule, the TGI with MOLT-4 leukemia, with ACHN renal, in the assay with OVCAR-5 ovarian and in the assay on IGROV1 ovarian was more than 100 µM each time.
Take `C[Si](C)(C)OC1(C#N)C2C3CC4C2C(=O)C2C4C3C21` (stereo not drawn): the TGI in the assay with U251 CNS, in the assay on OVCAR-8 ovarian, in the assay with SK-MEL-5 melanoma, in the assay on TK-10 renal, in the assay with NCI-H226 lung and with K-562 leukemia was more than 100 µM throughout. The TGI in the assay with MOLT-4 leukemia, in the assay on ACHN renal and with IGROV1 ovarian was more than 100 µM throughout.
Regarding `O=S(=O)(c1ccccc1)C(CN1CCCCC1)S(=O)(=O)c1ccccc1`, the TGI in the assay on U251 CNS, in the assay on OVCAR-8 ovarian, in the assay on TK-10 renal, in the assay with NCI-H226 lung, in the assay with K-562 leukemia and in the assay with MOLT-4 leukemia was more than 100 µM in each case. Moreover, the TGI in the assay with ACHN renal, with OVCAR-5 ovarian and with IGROV1 ovarian was more than 100 µM each time.
Turning to `COc1cc(C(=O)C/C(CCC(=O)Nc2ccccc2[N+](=O)[O-])=N\NC(=O)CC#N)ccc1O`, the TGI with OVCAR-8 ovarian, in the assay with SK-MEL-5 melanoma, in the assay on TK-10 renal, in the assay on NCI-H226 lung, in the assay on K-562 leukemia and in the assay on MOLT-4 leukemia was more than 100 µM each time. The TGI in the assay with ACHN renal, with OVCAR-5 ovarian and in the assay on IGROV1 ovarian was more than 100 µM in each case.
On to `CCCCCCc1cc(C(=O)Nc2cccc(C(F)(F)F)c2)nc(N)n1`, for which the TGI in the assay on U251 CNS, in the assay on SK-MEL-5 melanoma, in the assay on TK-10 renal, in the assay with NCI-H226 lung, in the assay on K-562 leukemia and in the assay on MOLT-4 leukemia was more than 100 µM in each case. The TGI with ACHN renal, in the assay with OVCAR-5 ovarian and in the assay with IGROV1 ovarian was more than 100 µM in each case.
Consider `O=C1C(=O)N(c2ccc(Cl)c(Cl)c2)C(=O)C(=O)C1c1nc2ccccc2s1`, for which the TGI in the assay on U251 CNS, in the assay with OVCAR-8 ovarian, with SK-MEL-5 melanoma, with TK-10 renal, in the assay with NCI-H226 lung and in the assay with MOLT-4 leukemia was more than 100 µM each time. Besides, the TGI in the assay with ACHN renal, in the assay on OVCAR-5 ovarian and in the assay with IGROV1 ovarian was more than 100 µM throughout.
For the molecule `C=CC(=O)N(C)[C@H]1C[C@H]2OC(C)(C1OC)n1c3ccccc3c3c4c(c5c6ccccc6n2c5c31)C(=O)NC4` (stereo partly drawn), the GI50 in the assay on U251 CNS was 0.123 µM; in the assay with OVCAR-8 ovarian, 0.217 µM; in the assay with SK-MEL-5 melanoma, 0.262 µM; in the assay on NCI-H226 lung, 0.0963 µM; in the assay with K-562 leukemia, 0.233 µM; in the assay on MOLT-4 leukemia it was 0.0773 µM. In addition, the GI50 in the assay with ACHN renal was 0.139 µM; with OVCAR-5 ovarian it was 0.106 µM. Further, the TGI is 0.913 µM in the assay with U251 CNS; 0.972 µM with SK-MEL-5 melanoma; 0.92 µM in the assay with NCI-H226 lung; more than 50 µM with K-562 leukemia; 0.899 µM in the assay with MOLT-4 leukemia; more than 50 µM with ACHN renal. The molecule further registered a TGI in the assay with OVCAR-5 ovarian of more than 50 µM.
As to `CCOC(=O)C1=C(NC)OC/C1=N\NC(=O)c1ccccc1O`, the TGI in the assay on U251 CNS was more than 100 µM; with OVCAR-8 ovarian it was more than 100 µM; with SK-MEL-5 melanoma, more than 100 µM; in the assay on TK-10 renal, more than 100 µM; in the assay with NCI-H226 lung, 60.6 µM; in the assay with K-562 leukemia, more than 100 µM. Also, the TGI in the assay on MOLT-4 leukemia, in the assay with OVCAR-5 ovarian and in the assay with IGROV1 ovarian was more than 100 µM each time.
Take `Clc1cc(Cl)c(OCC#CI)cc1Cl`: the GI50 with U251 CNS was 15.4 µM; in the assay with OVCAR-8 ovarian, 3.39 µM; in the assay with SK-MEL-5 melanoma, 5.93 µM; in the assay with TK-10 renal it was 3.45 µM; in the assay with NCI-H226 lung, 19.3 µM; in the assay on K-562 leukemia it was 3.49 µM. Besides, the GI50 in the assay on MOLT-4 leukemia is 2.05 µM; with ACHN renal it was 3.01 µM; in the assay with OVCAR-5 ovarian, 13.7 µM. Besides, the TGI with U251 CNS was 29.6 µM; in the assay on OVCAR-8 ovarian, 13.1 µM; in the assay on SK-MEL-5 melanoma, 18.9 µM; in the assay on TK-10 renal it was 13.2 µM; in the assay on NCI-H226 lung it was 40.8 µM; with K-562 leukemia it was 18.9 µM. Moreover, the TGI came to 6.11 µM with MOLT-4 leukemia, 12 µM in the assay on ACHN renal and 27.2 µM with OVCAR-5 ovarian.
